Patent publication US5017703A, “Indolylpiperidine compounds, processes for the preparation thereof and pharmaceutical composition comprising the same” (Fujisawa Pharmaceutical Company, Ltd., priority 1988, dated 1991)
≈ marks a conversion by molar mass, not a printed value.

What follows are compounds tested on SRS-A synthesis or release from peritoneal exudate cells (assay: Anti-SRS-A activity (SRS-A synthesis or release from peritoneal exudate cells)). Conditions: rat peritoneal exudate cells, Ca++-ionophore A23187 1 μg/ml, indomethacin 10 μg/ml; SRS-A determined by contractility of isolated guinea pig ileum; read-out: Inhibitory Concentration IC50.
Assay type: cell-based, SD rats
Experimental: Peritoneal exudate cells were collected from glycogen-injected SD rats and adjusted to 1×10^7 cells/ml with Tyrode's solution. One milliliter of the cell suspension was incubated with indomethacin (10 μg/ml) and each varied concentration of the test compound for 10 minutes and, then, further incubated with Ca^++ -ionophore (A23187, 1 μg/ml) for 10 minutes. The supernatant was collected by centrifugation and the SRS-A (slow-reacting substance of anaphylaxis) activity was determined in terms of contractility of the isolated guinea pig ileum in the presence of mepyramine, atropine and methysergide.
The results were expressed in terms of the 50% inhibitory concentration to SRS-A synthesis or release from peritoneal exudate cells.

Point of comparison: `COc1cc(/C=C/C=C/C(=O)NCCN2CCC(c3c[nH]c4ccccc34)CC2)ccc1OC(C)=O` [Compound D, 1-[2-{5-(4-Acetoxy-3-methoxyphenyl)-(2E, 4E)-2,4-pentadienoylamino}ethy]-4-(3-indolyl)piperidine], IC50 0.6 µg/mL (≈ 1.23 µM). Against it:
- COc1cc(/C=C/C=C/C(=O)NCCN2CCC(c3c[nH]c4ccccc34)CC2)cc(OC)c1O [Compound C, 1-[2-{5-(4-Hydroxy-3,5-dimethoxyphenyl)-(2E, 4E)-2,4-pentadienoylamino}ethyl]-4-(3-indolyl)piperidine] — within 1.5-fold, 0.68 µg/mL (≈ 1.43 µM)
- O=C(/C=C/C=C/c1cc(Cl)c(O)c(Cl)c1)NCCN1CCC(c2c[nH]c3ccccc23)CC1 [Compound F, 1-[2-{5-(3,5-Dichloro-4-hydroxyphenyl)-(2E, 4E)-2,4-pentadienoylamino}ethyl]-4-(3-indolyl)piperidine] — within 1.5-fold, 0.65 µg/mL (≈ 1.34 µM)
- COc1cc(/C=C/C=C/C(=O)NCCN2CCC(c3c[nH]c4ccccc34)CC2)cc(OC)c1OC(C)=O [Compound E, 1-[2-{5-(4-Acetoxy-3,5-dimethoxyphenyl)-(2E, 4E)-2,4-pentadienoylamino}ethyl]-4-(3-indolyl)piperidine] — 2.6-fold lower, 0.23 µg/mL (≈ 0.444 µM)
- COc1cc(/C=C/C=C/C(=O)NCCN2CCC(c3c[nH]c4ccccc34)CC2)ccc1O [Compound B, 1-[2-{5-(4-Hydroxy-3-methoxyphenyl)-(2E, 4E)-2,4-pentadienoylamino}ethyl]-4-(3-indolyl)piperidine] — 1.5-fold higher, 0.91 µg/mL (≈ 2.04 µM)

The compounds below were run on anaphylactic asthma in guinea pigs (assay: Antagonistic action on anaphylactic asthma in guinea pigs). Conditions: Cavia porcellus; oral, 30 min before 5% egg-white albumin aerosol; passively sensitized guinea pigs, 5 per group; survival for not less than 2 hours; read-out: Prophylactic Effect ED50.
Assay type: in vivo, Male Hartley-strain guinea pigs
Experimental: Antagonistic action on anaphylactic asthma in guinea pigs.
Male Hartley-strain guinea pigs weighing 305-400g were used. These animals were sensitized by intravenous injection of 0.5 ml/animal of rabbit antiserum to egg-white albumin (PCA antibody titer 4,000). After 24 hours, the animals were housed individually in 5.3-liter plastic chambers. Using a commercial sprayer, a 5% egg-white albumin solution was sprayed in the form of an aerosol into each chamber at a rate of 0.16 ml/min for 2 minutes. Thirty minutes prior to the spraying of the egg-white albumin solution, the test compound was administered orally in varied concentrations. Each dosed group consisted of 5 animals. The prophylactic effect to anaphylaxis was expressed in terms of the ED50 value determined on the basis of the number of guinea pigs which had survived for not less than 2 hours after antigen spraying for each administration concentration of the test compound.

Point of comparison: `COc1cc(/C=C/C=C/C(=O)NCCN2CCC(c3c[nH]c4ccccc34)CC2)cc(OC)c1O` [Compound C, 1-[2-{5-(4-Hydroxy-3,5-dimethoxyphenyl)-(2E, 4E)-2,4-pentadienoylamino}ethyl]-4-(3-indolyl)piperidine], ED50 0.5 mg/kg. Against it:
- COc1cc(/C=C/C=C/C(=O)NCCCCN2CCC(c3c[nH]c4ccccc34)CC2)ccc1O [Compound A, 1-[4-{5-(4-Hydroxy-3-methoxyphenyl)-(2E, 4E)-2,4-pentadienoylamino}butyl]-4-(3-indolyl)-piperidine] — the same, 0.5 mg/kg
